What was measured:
[1] = molecular target: T1, Cyclin-dependent kinase 2 (Homo sapiens, UniProt P24941)
[2] = molecular target: T2, Cyclin-dependent kinase 9 (Homo sapiens, UniProt P50750)
[3] = molecular target: Cyclin-dependent kinase 5 (Homo sapiens, UniProt Q00535)
[4] = molecular target: T3, Cyclin-dependent kinase 6 (Homo sapiens, UniProt Q00534)
[5] = molecular target: T4, Cyclin-dependent kinase 4 (Homo sapiens, UniProt P11802)
[6] = molecular target: T4, Cyclin-dependent kinase 4; experiment: Binding affinity to CDK4 (unknown origin) assessed as inhibition constant
[7] = molecular target: T2, Cyclin-dependent kinase 9; experiment: Binding affinity to CDK9 (unknown origin) assessed as inhibition constant
[8] = molecular target: T3, Cyclin-dependent kinase 6; experiment: Binding affinity to CDK6 (unknown origin) assessed as inhibition constant
[9] = molecular target: T1, Cyclin-dependent kinase 2; experiment: Binding affinity to CDK2 (unknown origin) extracted from insect cells assessed as inhibition constant; type: cell-free, Insect cell
[10] = molecular target: Cyclin-dependent kinase 13/Cyclin-K (Homo sapiens, UniProt Q14004)
[11] = molecular target: T5, Cyclin-dependent kinase 7 (Homo sapiens, UniProt P50613)
CDK12/Cyclin K = CDK12/Cyclin K (Homo sapiens, UniProt Q9NYV4)
[12] = molecular target: Cyclin-dependent kinase 1 (Homo sapiens, UniProt P06493)
[13] = molecular target: T3, Cyclin-dependent kinase 6; remark: listed apart in the source
[14] = molecular target: T4, Cyclin-dependent kinase 4; remark: listed apart in the source
[15] = molecular target: T2, Cyclin-dependent kinase 9; remark: listed apart in the source
[16] = molecular target: T1, Cyclin-dependent kinase 2; remark: listed apart in the source
[17] = molecular target: Cyclin-dependent kinase 13 (Homo sapiens, UniProt Q14004)
[18] = molecular target: T5, Cyclin-dependent kinase 7; experiment: biochemical

T3 sequence (Q00534 whole entry): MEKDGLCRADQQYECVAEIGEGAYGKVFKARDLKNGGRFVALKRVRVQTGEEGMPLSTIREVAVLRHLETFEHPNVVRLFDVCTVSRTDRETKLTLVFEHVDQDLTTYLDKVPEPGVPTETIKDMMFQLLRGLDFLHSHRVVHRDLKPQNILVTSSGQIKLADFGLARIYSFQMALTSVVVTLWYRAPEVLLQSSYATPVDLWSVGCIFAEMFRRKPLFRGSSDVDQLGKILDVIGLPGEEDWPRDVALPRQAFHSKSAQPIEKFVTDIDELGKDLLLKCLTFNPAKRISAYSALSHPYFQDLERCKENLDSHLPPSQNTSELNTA
T4 sequence (P11802 whole entry): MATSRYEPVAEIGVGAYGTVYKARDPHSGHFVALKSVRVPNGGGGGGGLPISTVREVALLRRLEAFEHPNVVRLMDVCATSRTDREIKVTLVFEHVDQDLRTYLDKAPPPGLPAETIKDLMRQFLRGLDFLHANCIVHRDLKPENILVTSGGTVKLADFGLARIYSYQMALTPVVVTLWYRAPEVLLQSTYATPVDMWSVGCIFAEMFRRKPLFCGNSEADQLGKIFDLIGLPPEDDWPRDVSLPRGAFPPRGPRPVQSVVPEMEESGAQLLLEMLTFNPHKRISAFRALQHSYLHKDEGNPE
T2 sequence (P50750 whole entry): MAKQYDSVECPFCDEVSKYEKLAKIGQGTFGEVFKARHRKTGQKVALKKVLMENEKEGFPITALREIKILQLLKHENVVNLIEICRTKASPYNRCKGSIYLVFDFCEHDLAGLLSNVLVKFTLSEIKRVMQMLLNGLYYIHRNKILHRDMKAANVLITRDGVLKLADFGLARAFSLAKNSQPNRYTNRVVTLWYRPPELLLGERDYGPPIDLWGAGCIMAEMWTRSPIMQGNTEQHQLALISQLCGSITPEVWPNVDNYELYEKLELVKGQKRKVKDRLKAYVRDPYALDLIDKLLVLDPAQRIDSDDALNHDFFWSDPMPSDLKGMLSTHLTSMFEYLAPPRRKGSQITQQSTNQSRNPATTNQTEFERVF
Sequence of CDK12/Cyclin K (O75909 whole entry): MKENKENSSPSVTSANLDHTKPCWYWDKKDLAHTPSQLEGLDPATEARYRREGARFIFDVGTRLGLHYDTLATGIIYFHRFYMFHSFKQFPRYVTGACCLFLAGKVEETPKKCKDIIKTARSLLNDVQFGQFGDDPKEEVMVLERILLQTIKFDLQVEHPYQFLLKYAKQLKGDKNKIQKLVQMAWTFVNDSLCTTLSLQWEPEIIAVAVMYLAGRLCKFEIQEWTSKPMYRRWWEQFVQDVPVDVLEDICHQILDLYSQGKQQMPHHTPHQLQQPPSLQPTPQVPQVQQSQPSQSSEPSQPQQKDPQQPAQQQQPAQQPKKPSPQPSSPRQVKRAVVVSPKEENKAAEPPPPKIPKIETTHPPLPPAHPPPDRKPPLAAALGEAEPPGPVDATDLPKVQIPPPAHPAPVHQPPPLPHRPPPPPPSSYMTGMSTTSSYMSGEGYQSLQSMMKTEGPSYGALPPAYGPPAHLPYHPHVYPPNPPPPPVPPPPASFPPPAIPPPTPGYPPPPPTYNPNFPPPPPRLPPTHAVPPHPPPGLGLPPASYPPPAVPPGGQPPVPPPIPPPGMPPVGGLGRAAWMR
Sequence of CDK12/Cyclin K (Q9NYV4 whole entry): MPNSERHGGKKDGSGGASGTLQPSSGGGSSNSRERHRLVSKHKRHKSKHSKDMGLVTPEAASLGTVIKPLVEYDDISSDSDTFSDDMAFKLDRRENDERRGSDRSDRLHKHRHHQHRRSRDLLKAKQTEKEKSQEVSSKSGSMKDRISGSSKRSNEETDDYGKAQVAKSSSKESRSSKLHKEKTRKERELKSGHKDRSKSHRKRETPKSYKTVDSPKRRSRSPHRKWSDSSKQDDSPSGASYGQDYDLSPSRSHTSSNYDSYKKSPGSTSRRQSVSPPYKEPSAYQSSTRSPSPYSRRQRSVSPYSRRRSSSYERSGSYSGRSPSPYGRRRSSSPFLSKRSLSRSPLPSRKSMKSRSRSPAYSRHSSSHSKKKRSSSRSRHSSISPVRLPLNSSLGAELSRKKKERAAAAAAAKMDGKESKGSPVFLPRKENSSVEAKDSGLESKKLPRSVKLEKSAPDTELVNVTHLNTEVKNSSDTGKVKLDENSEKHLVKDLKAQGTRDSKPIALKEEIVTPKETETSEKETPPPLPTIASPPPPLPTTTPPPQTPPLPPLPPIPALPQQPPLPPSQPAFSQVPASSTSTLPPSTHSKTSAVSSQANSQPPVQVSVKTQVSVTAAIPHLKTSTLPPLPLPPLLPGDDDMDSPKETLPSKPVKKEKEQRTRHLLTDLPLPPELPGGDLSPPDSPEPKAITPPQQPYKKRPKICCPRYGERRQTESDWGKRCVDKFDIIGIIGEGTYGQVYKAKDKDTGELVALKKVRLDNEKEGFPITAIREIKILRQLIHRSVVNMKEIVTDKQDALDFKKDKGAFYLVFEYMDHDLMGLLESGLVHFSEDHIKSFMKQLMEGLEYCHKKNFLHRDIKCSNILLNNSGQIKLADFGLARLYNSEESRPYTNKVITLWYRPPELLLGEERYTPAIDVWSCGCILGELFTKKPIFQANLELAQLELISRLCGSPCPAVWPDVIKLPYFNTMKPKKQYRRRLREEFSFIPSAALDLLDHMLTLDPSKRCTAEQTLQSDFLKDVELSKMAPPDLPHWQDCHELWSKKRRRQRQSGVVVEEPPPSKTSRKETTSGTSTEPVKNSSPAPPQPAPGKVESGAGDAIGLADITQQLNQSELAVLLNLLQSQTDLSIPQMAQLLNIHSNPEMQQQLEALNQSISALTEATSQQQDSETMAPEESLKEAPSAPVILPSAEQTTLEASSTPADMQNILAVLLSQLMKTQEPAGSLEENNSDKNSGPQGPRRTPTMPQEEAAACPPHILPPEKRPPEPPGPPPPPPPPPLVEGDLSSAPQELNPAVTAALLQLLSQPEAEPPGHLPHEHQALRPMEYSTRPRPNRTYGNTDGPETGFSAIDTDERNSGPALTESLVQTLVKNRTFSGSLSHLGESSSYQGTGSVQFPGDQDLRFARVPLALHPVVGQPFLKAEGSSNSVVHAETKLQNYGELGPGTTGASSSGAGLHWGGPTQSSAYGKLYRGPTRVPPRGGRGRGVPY
T5 sequence (P50613 whole entry): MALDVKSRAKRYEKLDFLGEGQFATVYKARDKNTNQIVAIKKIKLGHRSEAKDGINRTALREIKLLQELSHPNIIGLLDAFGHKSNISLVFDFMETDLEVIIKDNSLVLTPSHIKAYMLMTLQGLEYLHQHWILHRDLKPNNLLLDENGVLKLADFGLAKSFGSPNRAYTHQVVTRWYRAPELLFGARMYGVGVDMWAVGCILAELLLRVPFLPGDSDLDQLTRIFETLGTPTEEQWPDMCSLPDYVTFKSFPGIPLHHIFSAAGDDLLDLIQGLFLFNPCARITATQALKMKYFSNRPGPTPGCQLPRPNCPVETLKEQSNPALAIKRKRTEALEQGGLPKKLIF
Sequence of Cyclin-dependent kinase 13/Cyclin-K (Q14004 whole entry): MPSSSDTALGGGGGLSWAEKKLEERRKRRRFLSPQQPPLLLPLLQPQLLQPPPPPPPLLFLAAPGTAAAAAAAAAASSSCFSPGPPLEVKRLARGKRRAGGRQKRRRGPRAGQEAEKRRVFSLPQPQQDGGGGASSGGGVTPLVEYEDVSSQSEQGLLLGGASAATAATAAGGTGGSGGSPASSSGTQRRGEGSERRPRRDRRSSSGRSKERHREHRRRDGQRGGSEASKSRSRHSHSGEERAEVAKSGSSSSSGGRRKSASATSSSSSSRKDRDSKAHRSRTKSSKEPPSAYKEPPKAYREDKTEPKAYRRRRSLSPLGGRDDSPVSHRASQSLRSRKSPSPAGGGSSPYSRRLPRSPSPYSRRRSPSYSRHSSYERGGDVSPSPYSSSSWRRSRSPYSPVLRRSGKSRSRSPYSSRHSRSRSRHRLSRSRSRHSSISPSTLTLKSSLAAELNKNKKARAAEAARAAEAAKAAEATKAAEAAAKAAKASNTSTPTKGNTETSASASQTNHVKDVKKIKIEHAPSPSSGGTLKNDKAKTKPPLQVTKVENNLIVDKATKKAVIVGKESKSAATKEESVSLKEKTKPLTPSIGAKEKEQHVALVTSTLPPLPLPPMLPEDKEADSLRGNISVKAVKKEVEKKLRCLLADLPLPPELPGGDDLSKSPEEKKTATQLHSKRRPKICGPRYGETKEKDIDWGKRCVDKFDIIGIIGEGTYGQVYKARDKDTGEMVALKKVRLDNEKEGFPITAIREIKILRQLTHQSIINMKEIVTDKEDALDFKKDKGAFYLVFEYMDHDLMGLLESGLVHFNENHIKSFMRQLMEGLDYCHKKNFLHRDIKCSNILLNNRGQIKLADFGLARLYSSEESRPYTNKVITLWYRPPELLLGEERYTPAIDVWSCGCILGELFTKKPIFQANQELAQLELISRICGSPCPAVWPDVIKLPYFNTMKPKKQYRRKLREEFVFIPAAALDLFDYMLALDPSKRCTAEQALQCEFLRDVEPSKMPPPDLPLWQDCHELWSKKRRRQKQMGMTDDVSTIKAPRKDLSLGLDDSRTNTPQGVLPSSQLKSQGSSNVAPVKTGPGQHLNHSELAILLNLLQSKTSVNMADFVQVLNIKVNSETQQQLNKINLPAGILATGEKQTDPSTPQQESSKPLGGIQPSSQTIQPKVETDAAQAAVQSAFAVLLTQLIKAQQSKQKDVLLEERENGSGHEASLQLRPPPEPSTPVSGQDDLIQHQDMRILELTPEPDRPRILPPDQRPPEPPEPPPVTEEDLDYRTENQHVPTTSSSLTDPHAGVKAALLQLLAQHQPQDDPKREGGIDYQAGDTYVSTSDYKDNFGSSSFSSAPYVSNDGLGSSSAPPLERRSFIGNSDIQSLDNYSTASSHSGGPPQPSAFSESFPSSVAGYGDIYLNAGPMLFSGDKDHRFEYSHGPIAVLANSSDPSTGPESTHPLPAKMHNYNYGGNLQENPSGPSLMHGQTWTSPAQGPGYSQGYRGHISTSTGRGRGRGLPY
Sequence of Cyclin-dependent kinase 13/Cyclin-K (O75909 whole entry, further chain): as the sequence (O75909 whole entry) above
Sequence of Cyclin-dependent kinase 13 (Q14004 whole entry): as the sequence (Q14004 whole entry) above

**Q.** With `N[C@H]1CCN(c2c3c(nc4ccc(-c5ccncc5)cc24)CCCC3)C1` as the compound, how does the IC50 [1] read?
**A.** > 500 nM

**Q.** What about the IC50 [2] of the same compound?
**A.** 8 nM

**Q.** Which IC50 [3] does the source give for `CC(C)c1cnn2c(NCc3ccccc3)cc(NC[C@H]3CCNC[C@@H]3O)nc12` [CT-7001] here?
**A.** > 9400 nM

**Q.** What about the IC50 [4] of the same compound?
**A.** > 9400 nM

**Q.** And the IC50 [5]?
**A.** > 9400 nM

**Q.** Which results are given for `CC(=O)c1c(C)c2cnc(NC3CCN(S(C)(=O)=O)CC3)nc2n(C2CCCC2)c1=O`?
**A.** Ki [6]: 0.2 nM; Ki [7]: 9.6 nM; Ki [8]: 0.2 nM; Ki [9]: 5.9 nM

**Q.** `N[C@H]1CCN(c2c3c(nc4ccc(-c5ccnc(NC(=O)C6CC6)c5)cc24)CCCC3)C1` was tested. Which IC50 [2] did it give?
**A.** 2 nM

**Q.** For `CN(C)C/C=C/C(=O)Nc1ccc(C(=O)N2CCC[C@@H](Nc3ncc(Cl)c(-c4c[nH]c5ccccc45)n3)C2)cc1`, which IC50 [10] is on record?
**A.** 690 nM

**Q.** How did the IC50 [11] turn out when `CN(C)C/C=C/C(=O)Nc1ccc(C(=O)N[C@@]2(C)CCC[C@@H](Nc3ncc(Cl)c(-c4c[nH]c5ccccc45)n3)C2)nc1` was run?
**A.** 80 nM

**Q.** How did the EC50 (CDK12/Cyclin K) turn out when `CC(C)c1nn(-c2c(Cl)cccc2Cl)c2nc(Cc3ccc(OCCO)cc3)[nH]c(=O)c12` was run?
**A.** 12 nM

**Q.** With `CC(C)n1cnc2c(NCc3nc4cc(Cl)c(Cl)cc4[nH]3)nc(N3CCOCC3)nc21` as the compound, how does the EC50 (CDK12/Cyclin K) read?
**A.** 9 nM

**Q.** Which results are given for `Cn1cc(-n2cnc3c(NCc4nc5cc(Cl)c(Cl)cc5[nH]4)nc(N4CCOCC4)nc32)cn1`?
**A.** IC50 [12]: < 10000 nM; Kd [13]: > 10000 nM; IC50 [14]: > 10000 nM; Kd [15]: > 10000 nM; IC50 [16]: > 10000 nM

**Q.** Which IC50 [17] does the source give for `CN(C)C/C=C/C(=O)Nc1ccc(C(=O)Nc2cccc(Nc3ncc(Cl)c(-c4c[nH]c5ccccc45)n3)c2)cc1` here?
**A.** 620 nM

**Q.** Which IC50 [18] does the source give for `Clc1cnc(N[C@H]2CCCNC2)nc1-c1c[nH]c2ccccc12` here?
**A.** 0.33 nM

From ChEMBL document CHEMBL5579822, “Targeting cyclin-dependent kinases: From pocket specificity to drug selectivity” (Eur J Med Chem, 2024)
